In US10273517B2 (The Board of Regents of the University of Oklahoma, priority 2011, dated 2019):
Entries after “also recorded” stand apart in the source; their conditions may differ.

Key:
[1] = system: recombinant Comamonas testosteronan synthase (CtTS); experiment: Radiolabeled sugar incorporation assay, divalent cation specificity of CtTS; assay type: biochemical, Comamonas testosteroni KF-1; conditions: 5 mM Mg2+ or 5 mM Mn2+ or 2 mM EDTA; 30 minutes at 22° C.
Description: Radiolabeled sugar incorporation assays were performed (30 minutes at 22° C., as described in methods) in the presence of 5 mM Mg^2+ or 5 mM Mn^2+ or 2 mM EDTA.
(§1) Radiolabeled sugar incorporation assays (25 μl, 30 minutes at 22° C.) were performed using clarified lysates (60 μg total protein) in the presence of 0.05 mM UDP-GlcUA or UDP-GlcNAc as carrier with UDP-[^3H]GlcUA or UDP-[^3H]GlcNAc (0.1 μCi/assay) (NEN Perkin Elmer, Waltham, Mass.) with various unlabeled UDP-sugars (1 mM) or no second sugar as a negative control. The reaction buffer was 50 mM Tris, pH 7.2, 5 mM MgCl2; these conditions were obtained after limited optimization trials. Certain reactions used acceptors (1 μg) to bypass de novo initiation, including HA, heparosan, or Ct polysaccharide (sonicated 10 minutes on ice to increase the number of termini).
(§2) Reactions were incubated at the indicated temperatures for the times noted, and then stopped with 2% final SDS and separated by descending paper chromatography (65:35 ethanol/1 M ammonium acetate buffer, Whatman 3MM paper). This method enabled the separation of GAG polysaccharides with greater than ^˜14 sugar units, which remain at the origin, from smaller oligomers and unincorporated nucleotide sugars that migrate down the strip. The origin of the strip was cut out and subjected to liquid scintillation counting (BIOSAFE™, RPI Corp, Mt. Prospect, Ill.).

[2] = system: recombinant Comononas testosteroni synthase (CtTS); experiment: Polymer grafting of testosteronan onto acceptors using CtTS (agarose gel, stoichiometric size control); assay type: biochemical, Comamonas testosteroni; conditions: acceptor 15 or 30 μM, monosaccharides/glycosides first extended step-wise with two UDP-sugars, Stains-all
Description: The recombinant Comononas testosteroni synthase was incubated with both UDP-sugars and various acceptors (note: monosaccharides or glycosides first subjected to two extension steps via CtTS enzyme before adding both UDP sugars) OR ‘no acceptor’ in reaction buffer. The reactions were then subjected to agarose gel analysis with Stains-all dye detection. From left to right, the lanes are as follows: (1) HA LoLadder standard; (2) ‘no acceptor’ (de novo synthesis); (3) p-Nitrophenyl-β-D-glucuronide (15 μM); (4) p-Nitrophenyl-β-D-glucuronide (30 μM); (5) GlcUA (15 μM); (6) GlcUA (30 μM); (7) GlcNAc (15 μM); (8) GlcNAc (30 μM); (9) AFA=GlcUA-fluorescein-GlcUA (15 μM); (10) AFA (30 μM); (11) Hep4=base de-acetylated, nitrous acid, & reduced heparosan tetrasaccharide (15 μM); and (12) Hep4 (30 μM). Size control (i.e., differences in molecular weight between 15 and 30 μM) is noted with certain acceptors.
The recombinant Comononas testosteroni synthase was incubated with both UDP-sugars and various acceptors OR ‘no acceptor’ in reaction buffer. From left to right in FIG. 21, the lanes are listed below in Table 3.
For all acceptors except Hep4 and AFA, the final acceptor was produced in situ before elongation by extending step-wise with the next two appropriate UDP-sugars. For example, GlcUA was extended first with UDP-GlcNAc, then UDP-GlcUA (making a trisaccharide) before the complete polymerization reaction components (i.e., a mixture of many equivalents of UDP-GlcUA and UDP-GlcNAc together to allow the production of long polymer chains) were added. Two different concentrations of the acceptor were added (either 15 or 30 μM as noted) to test the effect of stoichiometric size control.

[3] = system: recombinant Comamonas testosteronan synthase (CtTS); experiment: Radiolabeled sugar incorporation assay, donor sugar specificity of CtTS; assay type: biochemical, Comamonas testosteroni KF-1; conditions: unlabeled UDP-sugar 1 mM, clarified lysate, 30 minutes at 22° C.; for activity (incorporation of [3H]GlcUA) with the unlabeled UDP-sugar as second precursor: UDP-[3H]GlcUA tracer; for incorporation of [3H]GlcNAc with the unlabeled UDP-sugar as second precursor: UDP-[3H]GlcNAc tracer
Description: FIG. 3 graphically depicts the donor specificity of CtTS.
In order to determine the preferred hexosamine sugar donor utilized for putative GAG-like heteropolysaccharide biosynthesis, activity assays were performed with clarified lysates from recombinant bacteria expressing CtTS using two different UDP-sugars simultaneously in polymerization reactions in vitro. […] By further studying acceptor specificity and using GAG degrading enzymes that are specific for these GAGs, the nature of the polysaccharide formed by CtTS in vitro was characterized.
as §1, §2

[4] = system: Proteus vulgaris chondroitinase ABC; experiment: GAG degrading enzyme challenge: chondroitinase ABC; assay type: in vitro ADME
Excerpt: (§3) Because of this finding, it is believed that while CtTS is able to utilize heparosan as an acceptor molecule due to a hypothetical shared structural feature, this GAG is not the native substrate.

[5] = biological target: heparin lyase I (Pedobacter heparinus, UniProt Q05819); experiment: GAG degrading enzyme challenge: heparin lyase I; assay type: in vitro ADME
Excerpt: as §3

[6] = system: Streptomyces hyalurolyticus HA lyase; experiment: GAG degrading enzyme challenge: HA lyase; assay type: in vitro ADME
Excerpt: as §3

[7] = system: recombinant Comamonas testosteronan synthase (CtTS); experiment: Radiolabeled sugar polymerization assay, acceptor specificity of CtTS; assay type: biochemical, Comamonas testosteroni KF-1; conditions: radiolabeled UDP-sugars; acceptor 1 μg
Description: FIG. 4 graphically depicts the acceptor specificity of CtTS. Extension of exogenous polysaccharide by recombinant Comamonas testosteronan synthase was measured. Activity assays were performed with radiolabeled UDP-sugars in the presence of hyaluronan, unsulfated chondroitin, heparosan or sonicated Comamonas polysaccharide.
Acceptor Specificity of CtTS: To identify the acceptor preference of CtTS, radiolabeled sugar polymerization assays were performed in the presence of various GAG acceptors. In many, but not all, GAG synthases, exogenous cognate polysaccharide will increase the signal in sugar incorporation assays by bypassing the slower de novo initiation phase (DeAngelis et al., 1999 and 2004); the elongation phase is much more rapid; thus, higher activity is observed. Typically, non-cognate GAG polymers with different glycosidic linkage patterns are very poor or non-functional acceptors for the known GAG synthases in vitro. Hyaluronan, unsulfated chondroitin and heparosan as well as polysaccharide extract from C. testosteroni were tested. Hyaluronan and heparosan tetrasaccharides were also tested for their abilities to act as acceptors. […] To confirm that CtTS is able to directly extend a heparosan acceptor so as to rule out an artifactual stabilizing or conformational effect in the radioassays, an ^125I-labeled tetrasaccharide heparosan acceptor was also tested in vitro in the presence of only UDP-GlcNAc for single sugar addition, or UDP-GlcNAc and UDP-GlcUA for polymerization.
as §1, with “Certain reactions used acceptors (1 μg) to bypass de novo initiation, including HA, heparosan, or Ct polysaccharide (sonicated 10 minutes on ice to increase the number of termini).” left out
Target sequence in this assay (as listed by the source): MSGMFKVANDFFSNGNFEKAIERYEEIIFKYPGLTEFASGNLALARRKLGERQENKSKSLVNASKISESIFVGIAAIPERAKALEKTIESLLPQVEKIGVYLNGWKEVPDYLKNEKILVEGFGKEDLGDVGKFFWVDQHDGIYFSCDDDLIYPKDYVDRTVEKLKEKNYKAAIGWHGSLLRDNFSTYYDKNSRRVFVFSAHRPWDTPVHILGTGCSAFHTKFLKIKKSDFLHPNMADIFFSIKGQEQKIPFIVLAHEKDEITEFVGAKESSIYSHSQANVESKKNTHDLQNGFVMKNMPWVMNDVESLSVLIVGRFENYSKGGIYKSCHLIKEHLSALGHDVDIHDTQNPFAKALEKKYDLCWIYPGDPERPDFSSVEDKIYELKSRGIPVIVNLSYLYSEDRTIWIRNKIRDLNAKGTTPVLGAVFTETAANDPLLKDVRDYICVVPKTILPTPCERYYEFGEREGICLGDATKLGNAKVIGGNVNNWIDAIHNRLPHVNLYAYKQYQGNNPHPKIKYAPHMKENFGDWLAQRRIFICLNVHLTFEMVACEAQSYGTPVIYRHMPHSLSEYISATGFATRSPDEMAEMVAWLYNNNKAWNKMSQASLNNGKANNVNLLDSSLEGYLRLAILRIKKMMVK

Sequence of heparin lyase I (Q05819 22-384): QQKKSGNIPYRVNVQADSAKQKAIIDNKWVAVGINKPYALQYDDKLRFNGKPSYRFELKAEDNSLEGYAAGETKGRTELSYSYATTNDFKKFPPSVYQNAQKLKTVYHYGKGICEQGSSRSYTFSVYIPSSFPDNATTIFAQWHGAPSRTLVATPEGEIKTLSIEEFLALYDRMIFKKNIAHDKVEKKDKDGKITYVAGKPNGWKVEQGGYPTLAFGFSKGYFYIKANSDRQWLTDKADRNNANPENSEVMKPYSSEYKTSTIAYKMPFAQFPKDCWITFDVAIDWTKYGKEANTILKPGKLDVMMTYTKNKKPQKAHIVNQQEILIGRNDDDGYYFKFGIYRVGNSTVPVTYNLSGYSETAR

## O=C(O)CN(CCN(CC(=O)O)CC(=O)O)CC(=O)O [EDTA]
[1]
  GT activity of CtTS in the presence of divalent cation or chelator: eradicated the polymerization signal

## CC(=O)N[C@H]1C(O)O[C@H](CO)[C@@H](O)[C@@H]1O (stereo partly shown) [GlcNAc, N-acetylglucosamine]
[2]
  stoichiometric size control of testosteronan product by acceptor: did not

## O=C[C@H](O)[C@@H](O)[C@H](O)[C@H](O)C(=O)O [GlcUA, glucuronic acid]
[2]
  stoichiometric size control of testosteronan product by acceptor: allowed efficient size control

## [Mg+2] [Mg^2+]
[1]
  GT activity of CtTS in the presence of divalent cation or chelator: roughly twice as for Mn^2+

## [Mn+2] [Mn^2+]
[1]
  GT activity of CtTS in the presence of divalent cation or chelator: supported GT activity

## CC(=O)N[C@H]1[C@@H](OP(=O)(O)OP(=O)(O)OC[C@H]2O[C@@H](n3ccc(=O)[nH]c3=O)[C@H](O)[C@@H]2O)O[C@H](CO)[C@H](O)[C@@H]1O [UDP-GalNAc]
[3]
  activity (incorporation of [3H]GlcUA) with the unlabeled UDP-sugar as second precursor: not

## O=C(O)[C@H]1O[C@H](OP(=O)(O)OP(=O)(O)OC[C@H]2O[C@@H](n3ccc(=O)[nH]c3=O)[C@H](O)[C@@H]2O)[C@H](O)[C@@H](O)[C@H]1O [UDP-GalUA]
[3]
  incorporation of [3H]GlcNAc with the unlabeled UDP-sugar as second precursor: only the reactions containing UDP-GlcUA showed significant incorporation

## CC(=O)N[C@H]1[C@@H](OP(=O)(O)OP(=O)(O)OC[C@H]2O[C@@H](n3ccc(=O)[nH]c3=O)[C@H](O)[C@@H]2O)O[C@H](CO)[C@@H](O)[C@@H]1O [UDP-GlcNAc]
[3]
  activity (incorporation of [3H]GlcUA) with the unlabeled UDP-sugar as second precursor: Significant activity

## O=C(O)[C@H]1O[C@H](OP(=O)(O)OP(=O)(O)OC[C@H]2O[C@@H](n3ccc(=O)[nH]c3=O)[C@H](O)[C@@H]2O)[C@H](O)[C@@H](O)[C@@H]1O [UDP-GlcUA]
[3]
  incorporation of [3H]GlcNAc with the unlabeled UDP-sugar as second precursor: significant incorporation

## O=C(O)[C@@H]1O[C@@H](OP(=O)(O)OP(=O)(O)OC[C@H]2O[C@@H](n3ccc(=O)[nH]c3=O)[C@H](O)[C@@H]2O)[C@H](O)[C@@H](O)[C@@H]1O [UDP-IdoUA]
[3]
  incorporation of [3H]GlcNAc with the unlabeled UDP-sugar as second precursor: only the reactions containing UDP-GlcUA showed significant incorporation

## O=C(O)[C@H]1O[C@@H](Oc2ccc([N+](=O)[O-])cc2)[C@H](O)[C@@H](O)[C@@H]1O [p-Nitrophenyl-D-glucuronide, p-Nitrophenyl-β-D-glucuronide]
[2]
  stoichiometric size control of testosteronan product by acceptor: allowed efficient size control

## GlcUA-fluorescein-GlcUA [AFA]
[2]
  stoichiometric size control of testosteronan product by acceptor: efficient size control

## [-4-D-GlcUA-α1,4-D-GlcNAc-α1-]n [synthetic polysaccharide]
[4]
  sensitivity to degradation by Proteus vulgaris chondroitinase ABC: insensitive to degradation
[5]
  sensitivity to degradation by heparin lyase I: insensitive to degradation
[6]
  sensitivity to degradation by Streptomyces hyalurolyticus HA lyase: insensitive to degradation

## [-4-D-GlcUA-α1,4-D-GlcNAc-α1-]n [testosteronan]
[5]
  sensitivity to degradation by heparin lyase I: did not digest

## [-4-D-GlcUA-β1,3-D-GlcNAc-β1-]n [hyaluronan]
[7]
  use of exogenous GAG polysaccharide as acceptor by CtTS: not

## [-4-D-GlcUA-β1,4-D-GlcNAc-α1-]n [heparosan]
[7]
  use of exogenous GAG polysaccharide as acceptor by CtTS: able to use; also recorded: capable of utilizing

## chondroitin
[7]
  use of exogenous GAG polysaccharide as acceptor by CtTS: not
